Test results taken from patent EP4653437A2 (Innovo Therapeutics Inc., priority 2023, dated 2024).

Tests used:
[1] = tested on: A549 cells; test: Measurement of PGE2-increasing activity in A549 cells (IL-1β stimulated, PGE2 quantified in supernatant); format: cell-based; conditions: Homo sapiens, 24 h; concentration of 1 µM of each compound; IL-1β treated A549 cells; read-out: Increased PGE2 production in A549 cells
In short: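 PGE2 secreted into the supernatant was measured by immunoassay 24 h after treatment. Before treatment, A549 cells were cultured 24 h in 10% FBS F12K, washed, and placed in serum-free medium containing compound (DMSO 0.1% final) plus or minus IL-1β, incubated at 37 °C, 5% CO2.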

[2] = molecular target: T1, human 15-PGDH (Homo sapiens, UniProt P15428); test: Evaluation of 15-PGDH inhibitory activity (fluorescence enzyme assay, NAD+/PGE2); format: biochemical; conditions: human 15-PGDH enzyme, fluorescence Vmax
T1 construct: purchased R&D System 5660-DH
T1 sequence (P15428 1-266): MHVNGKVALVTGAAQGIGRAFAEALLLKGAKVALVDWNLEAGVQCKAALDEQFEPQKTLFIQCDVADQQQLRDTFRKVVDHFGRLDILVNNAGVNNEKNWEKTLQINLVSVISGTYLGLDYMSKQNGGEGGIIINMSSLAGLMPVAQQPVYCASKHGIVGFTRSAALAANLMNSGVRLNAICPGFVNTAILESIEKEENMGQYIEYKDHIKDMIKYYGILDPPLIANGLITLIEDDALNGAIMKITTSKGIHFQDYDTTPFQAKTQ
Experimental: 15-PGDH inhibition activity of Example compounds was measured as follows. 6.7 ng of human 15-PGDH (R&D System# 5660-DH) enzyme (10 µL) was added to a black 96 well plate, 60 µL of buffer (50 mM Tris-HCl, pH 7.5, 0.01% Tween 20) was added, and 10 µL of 200 µM β-Nicotinamide adenine dinucleotide sodium salt (Sigma, Cat# N0632-5G) was added. 10 µL of (10x) compound solution in DMSO was added and reacted for 10 minutes at room temperature.

IC50 [2] | SMILES | fold induction at 1 µM [1]
≤ 100 nM | O=C(c1cnn2c(-c3ccc(Br)cc3)cccc12)N1CCCCC1 [Example 292, (7-(4-bromophenyl)pyrazolo[1,5-a]pyridin-3-yl)(piperidin-1-yl)methanone] | > 1.5
≤ 100 nM | CN(C)CC(=O)Nc1ccc(-c2cccc3c(C(=O)N4CCCCC4)cnn23)cn1 [Example 104, 2-(dimethylamino)-N-(5-(3-(piperidine-1-carbonyl)pyrazolo[1,5-a]pyridin-7-yl)pyridin-2-yl)acetamide] | > 1.5
≤ 100 nM | O=C(c1cnn2c(-c3cc(F)c(-c4noc(=O)[nH]4)c(F)c3)cccc12)N1CCCCC1 [Example 331, 3-(2,6-difluoro-4-(3-(piperidine-1-carbonyl)pyrazolo[1,5-a]pyridin-7-yl)phenyl)-1,2,4-oxadiazol-5(4H)-one] | > 1.5
≤ 100 nM | O=C(c1cnn2c(-c3cnc(O)nc3)cccc12)N1CCCCC1 [Example 294, [7-(2-hydroxypyrimidin-5-yl)pyrazolo[1,5-a]pyridin-3-yl]-(1-piperidyl)methanone] | < 1.5
≤ 100 nM | C[C@@H]1CCCN(C(=O)c2cnn3c(-c4ccc5c(c4)C(=O)NC5)cccc23)C1 [Example 385, (R)-6-(3-(3-methylpiperidine-1-carbonyl)pyrazolo[1,5-a]pyridin-7-yl)isoindolin-1-one] | > 1.5
≤ 100 nM | N#Cc1ccc(-c2cccc3c(C(=O)N4CCCCC4)cnn23)c(F)c1 [Example 285, 3-fluoro-4-[3-(piperidine-1-carbonyl)pyrazolo[1,5-a]pyridin-7-yl]benzonitrile] | > 1.5
≤ 100 nM | O=C(c1cnn2c(-c3ccccc3)cccc12)N1CC2CCC1CC2 [Example 228, (2-azabicyclo[2.2.2]octan-2-yl)(7-phenylpyrazolo[1,5-a]pyridin-3-yl)methanone] | < 1.5
≤ 100 nM | Cc1nc(-c2ccc(-c3cccc4c(C(=O)N5CCCCC5)cnn34)cc2)no1 [Example 118, (7-(4-(5-methyl-1,2,4-oxadiazol-3-yl)phenyl)pyrazolo[1,5-a]pyridin-3-yl)(piperidin-1-yl)methanone] | > 1.5
≤ 100 nM | CNC(=O)c1cccc(-c2cccc3c(C(=O)N4CCCCC4)cnn23)c1 [Example 27, N-methyl-3-(3-(piperidine-1-carbonyl)pyrazolo[1,5-a]pyridin-7-yl)benzamide] | < 1.5
≤ 100 nM | CNC(=O)c1ccc(-c2cccc3c(C(=O)N4CCCCC4)cnn23)cn1 [Example 75, N-methyl-5-(3-(piperidine-1-carbonyl)pyrazolo[1,5-a]pyridin-7-yl)picolinamide] | > 1.5
≤ 100 nM | O=C1NCc2ccc(-c3cccc4c(C(=O)N5CC6(C5)CC(F)(F)C6)cnn34)cc21 [Example 412, 6-(3-(6,6-difluoro-2-azaspiro[3.3]heptane-2-carbonyl)pyrazolo[1,5-a]pyridin-7-yl)isoindolin-1-one] | > 1.5
≤ 100 nM | O=C(c1cnn2c(-c3cnc4ccccc4c3)cccc12)N1CCCCC1 [Example 130, piperidin-1-yl(7-(quinolin-3-yl)pyrazolo[1,5-a]pyridin-3-yl)methanone] | > 1.5
≤ 100 nM | O=C(Nc1cccc2c(C(=O)N3CCCCC3)cnn12)c1cncc(F)c1 [Example 241, 5-fluoro-N-[3-(piperidine-1-carbonyl)pyrazolo[1,5-a]pyridin-7-yl]pyridine-3-carboxamide] | > 1.5
≤ 100 nM | O=C(c1ccc(-c2cccc3c(C(=O)N4CCCCC4)cnn23)cc1)N1CCNCC1 [Example 66, piperazin-1-yl(4-(3-(piperidine-1-carbonyl)pyrazolo[1,5-a]pyridin-7-yl)phenyl)methanone] | > 1.5
≤ 100 nM | O=C(Cc1cncc(F)c1)Nc1cncc(-c2cccc3c(C(=O)N4CCCCC4)cnn23)c1 [Example 402, 2-(5-fluoropyridin-3-yl)-N-(5-(3-(piperidine-1-carbonyl)pyrazolo[1,5-a]pyridin-7-yl)pyridin-3-yl)acetamide] | > 1.5
≤ 100 nM | O=C(c1cncc(-c2cccc3c(C(=O)N4CCCCC4)cnn23)c1)N1CCOCC1 [Example 39, (7-(5-(morpholine-4-carbonyl)pyridin-3-yl)pyrazolo[1,5-a]pyridin-3-yl)(piperidin-1-yl)methanone] | < 1.5

IC50 [2] | SMILES | fold induction at 1 µM [1]
≤ 100 nM | CCC1CCCN(C(=O)c2cnn3c(-c4ccc(N5CCOC5=O)nc4)cccc23)C1 (centres unmarked) [Example 354, 3-(5-(3-(3-ethylpiperidine-1-carbonyl)pyrazolo[1,5-a]pyridin-7-yl)pyridin-2-yl)oxazolidin-2-one] | > 1.5
≤ 100 nM | O=C(Cc1ccccc1)Nc1cncc(-c2cccc3c(C(=O)N4CCCCC4)cnn23)c1 [Example 389, 2-phenyl-N-(5-(3-(piperidine-1-carbonyl)pyrazolo[1,5-a]pyridin-7-yl)pyridin-3-yl)acetamide] | > 1.5
≤ 100 nM | O=C1NCCc2cc(-c3cccc4c(C(=O)N5CCCCC5)cnn34)ccc21 [Example 136, 6-(3-(piperidine-1-carbonyl)pyrazolo[1,5-a]pyridin-7-yl)-3,4-dihydroisoquinolin-1(2H)-one] | > 1.5
≤ 100 nM | CS(=O)(=O)Nc1ccc(-c2cccc3c(C(=O)N4CCCCC4)cnn23)cn1 [Example 112, N-(5-(3-(piperidine-1-carbonyl)pyrazolo[1,5-a]pyridin-7-yl)pyridin-2-yl)methanesulfonamide] | > 1.5
≤ 100 nM | O=C(c1cnn2c(NCc3ccc(Cl)cc3)cccc12)N1CCCCC1 [Example 238, [7-[(4-chlorophenyl)methylamino]pyrazolo[1,5-a]pyridin-3-yl]-(1-piperidyl)methanone] | > 1.5
≤ 100 nM | O=C(c1cnn2c(-c3cc(F)ncc3Cl)cccc12)N1CCCCC1 [Example 298, (7-(5-chloro-2-fluoropyridin-4-yl)pyrazolo[1,5-a]pyridin-3-yl)(piperidin-1-yl)methanone] | > 1.5
≤ 100 nM | CC(C)N1CCN(C(=O)c2ccc(-c3cccc4c(C(=O)N5CCCCC5)cnn34)cn2)CC1 [Example 84, (4-isopropylpiperazin-1-yl)(5-(3-(piperidine-1-carbonyl)pyrazolo[1,5-a]pyridin-7-yl)pyridin-2-yl)methanone] | > 1.5
≤ 100 nM | O=C(Nc1ncc(-c2cccc3c(C(=O)N4CCCCC4)cnn23)cc1Cl)c1cccnc1 [Example 301, N-(3-chloro-5-(3-(piperidine-1-carbonyl)pyrazolo[1,5-a]pyridin-7-yl)pyridin-2-yl)nicotinamide] | > 1.5
≤ 100 nM | CN(C)CCNC(=O)c1ccc(-c2cccc3c(C(=O)N4CCCCC4)cnn23)cc1 [Example 63, N-(2-(dimethylamino)ethyl)-4-(3-(piperidine-1-carbonyl)pyrazolo[1,5-a]pyridin-7-yl)benzamide] | > 1.5
≤ 100 nM | O=C(NCc1ccon1)c1cncc(-c2cccc3c(C(=O)N4CCCCC4)cnn23)c1 [Example 55, N-(isoxazol-3-ylmethyl)-5-(3-(piperidine-1-carbonyl)pyrazolo[1,5-a]pyridin-7-yl)nicotinamide] | > 1.5
≤ 100 nM | O=C(c1cnn2c(-c3cccc(-c4noc(=O)[nH]4)c3)cccc12)N1CCCCC1 [Example 115, 3-(3-(3-(piperidine-1-carbonyl)pyrazolo[1,5-a]pyridin-7-yl)phenyl)-1,2,4-oxadiazol-5(4H)-one] | > 1.5
≤ 100 nM | O=C(Nc1ccncc1)c1cncc(-c2cccc3c(C(=O)N4CCCCC4)cnn23)c1 [Example 54, 5-(3-(piperidine-1-carbonyl)pyrazolo[1,5-a]pyridin-7-yl)-N-(pyridin-4-yl)nicotinamide] | > 1.5
≤ 100 nM | O=C(c1cnn2c(-c3ccc(-c4n[nH]c(=O)o4)cc3)cccc12)N1CCCCC1 [Example 349, 5-[4-[3-(piperidine-1-carbonyl)pyrazolo[1,5-a]pyridin-7-yl]phenyl]-3H-1,3,4-oxadiazol-2-one] | > 1.5
≤ 100 nM | O=C(c1cnn2c(-c3cc(Br)cnc3F)cccc12)N1CCCCC1 [Example 265, (7-(5-bromo-2-fluoropyridin-3-yl)pyrazolo[1,5-a]pyridin-3-yl)(piperidin-1-yl)methanone] | > 1.5
≤ 100 nM | N#CCCNC(=O)c1ccc(-c2cccc3c(C(=O)N4CCCCC4)cnn23)cc1 [Example 69, N-(2-cyanoethyl)-4-(3-(piperidine-1-carbonyl)pyrazolo[1,5-a]pyridin-7-yl)benzamide] | > 1.5
